We go through 10 compounds from ChEMBL document CHEMBL1201862, “PubChem BioAssay data set” (2004).

Among the test systems are A549; HCC 2998; DU-145; SF-539; K562; OVCAR-4; NCI/ADR-RES; 786-0; EKVX; LOX IMVI; HCT-116; NCI-H226; CCRF-CEM; PC-3; OVCAR-8; MDA-MB-435; SK-OV-3; UACC-257; SNB-19; Malme-3M.
Common to all, as to test: inhibition of tumour cell growth, NCI panel, 48 h

Each structure is given as a SMILES string.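 Results reflect a 48-hour exposure of cells in 96-well plates to compound at five concentrations. GI50 = concentration required for 50% inhibition of growth.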 Active and inactive are the calls of the source. Rule as the data show it: active = GI50 up to about 1.1 µM and inactive = higher.

Take `CN(CCNC(=O)c1cn(C)c2c1ccc1cc(Cl)ccc12)CCNC(=O)c1cn(C)c2c1ccc1cc(Cl)ccc12`: the GI50 with A549 was 1.92 µM (inactive); with HCC 2998 it was 1.49 µM (inactive); with DU-145 it was 1.73 µM (inactive); in the assay with SF-539 it was 4.78 µM (inactive); in the assay on K562 it was 5.96 µM (inactive); with OVCAR-4 it was 1.66 µM (inactive). The GI50 with NCI/ADR-RES is 2.05 µM (inactive); in the assay with 786-0, 1.99 µM (inactive); with EKVX, 1.94 µM (inactive); in the assay on LOX IMVI it was 5.71 µM (inactive); with HCT-116 it was 1.71 µM (inactive); in the assay on NCI-H226, 25.9 µM (inactive). For the same compound, the GI50 with CCRF-CEM is 5.74 µM (inactive); in the assay with PC-3 it was 5.5 µM (inactive); in the assay on OVCAR-8, 6 µM (inactive); with MDA-MB-435 it was 1.44 µM (inactive); with SK-OV-3 it was 1.56 µM (inactive); with UACC-257, 6.38 µM (inactive). Besides, the figures for the GI50 with SNB-19 and in the assay on Malme-3M were 1.83 µM (inactive) and 2.21 µM (inactive), respectively.
For the compound `CC1(C)CC(=O)C2=C(C1)OC1=C(CC(C)(C)CC1=O)C2c1ccccc1Cl` (stereo unspecified), the GI50 in the assay on A549 was > 100 µM (inactive); in the assay on HCC 2998, > 100 µM (inactive); in the assay on DU-145 it was > 100 µM (inactive); with SF-539, 70.5 µM (inactive); in the assay on K562, > 100 µM (inactive); in the assay with OVCAR-4, > 100 µM (inactive). In addition, the GI50 in the assay on NCI/ADR-RES, in the assay on 786-0, in the assay with EKVX, with LOX IMVI, in the assay on HCT-116 and in the assay with NCI-H226 was > 100 µM (inactive) each time. Moreover, the GI50 in the assay with CCRF-CEM, in the assay with PC-3, in the assay on OVCAR-8, in the assay on MDA-MB-435, in the assay on SK-OV-3 and with UACC-257 was > 100 µM (inactive) throughout. For the same compound, the GI50 in the assay on SNB-19 and in the assay on Malme-3M was > 100 µM (inactive) throughout.
Consider `O=C1CC2C=CC(O)C(C1)C2` (stereo unspecified), for which the GI50 in the assay with HCC 2998, in the assay with DU-145, with SF-539, in the assay with K562, with OVCAR-4 and in the assay with NCI/ADR-RES was > 100 µM (inactive) throughout. The GI50 in the assay with 786-0 is > 100 µM (inactive); in the assay with LOX IMVI, > 100 µM (inactive); with HCT-116, > 100 µM (inactive); with NCI-H226, 37.4 µM (inactive); in the assay with CCRF-CEM, > 100 µM (inactive); in the assay on PC-3 it was > 100 µM (inactive). Besides, the GI50 with OVCAR-8, in the assay with MDA-MB-435, with SK-OV-3, in the assay with UACC-257, with SNB-19 and in the assay with Malme-3M was > 100 µM (inactive) each time.
For the compound `Nc1ccn([C@H]2CO[C@@H](CO)O2)c(=O)n1`, the GI50 in the assay on A549 is 1.35 µM (inactive); in the assay with HCC 2998, 33.7 µM (inactive); with DU-145, 0.0658 µM (active); with SF-539 it was 4.46 µM (inactive); in the assay with K562, 26.1 µM (inactive); in the assay with OVCAR-4, > 100 µM (inactive). Further, the GI50 was 3.88 µM (inactive) with NCI/ADR-RES; 2.87 µM (inactive) with 786-0; > 55.8 µM (inactive) in the assay on EKVX; 0.804 µM (active) in the assay with LOX IMVI; 1.39 µM (inactive) in the assay on HCT-116; 39.4 µM (inactive) with NCI-H226. Further, the GI50 in the assay on CCRF-CEM is 0.238 µM (active); in the assay with PC-3, 1.39 µM (inactive); in the assay on OVCAR-8, 1.51 µM (inactive); in the assay on MDA-MB-435 it was 20.8 µM (inactive); with SK-OV-3, 3.77 µM (inactive); in the assay with UACC-257, 97.7 µM (inactive). In addition, the figures for the GI50 with SNB-19 and with Malme-3M were 4.26 µM (inactive) and 62.2 µM (inactive), respectively.
On to `O=C1C(/N=N/c2ccc(-c3nc4ccccc4[nH]3)cc2)NC(=S)N1c1ccccc1` (stereo unspecified), for which the GI50 with A549 is 53.7 µM (inactive); with HCC 2998, 21.2 µM (inactive); with DU-145, 28.6 µM (inactive); in the assay on SF-539 it was 51.9 µM (inactive); in the assay on K562, 17.1 µM (inactive); with OVCAR-4 it was 61.9 µM (inactive). Further, the GI50 with NCI/ADR-RES was > 100 µM (inactive); with 786-0, 18.9 µM (inactive); in the assay on EKVX it was > 100 µM (inactive); in the assay with LOX IMVI it was 19.8 µM (inactive); with HCT-116, 36.8 µM (inactive); in the assay on NCI-H226 it was > 100 µM (inactive). For the same compound, the GI50 in the assay on CCRF-CEM was 10.7 µM (inactive); in the assay with PC-3, 98.2 µM (inactive); in the assay with OVCAR-8, 47.2 µM (inactive); with MDA-MB-435 it was 67.3 µM (inactive); with SK-OV-3, > 100 µM (inactive); with UACC-257 it was > 100 µM (inactive). The GI50 in the assay with SNB-19 and in the assay on Malme-3M was > 100 µM (inactive) in each case.
Consider `CCOC(=O)Oc1cc2c(c(OC)c1OC)-c1ccc(SC)c(=O)cc1C(NC(=O)C(F)(F)F)CC2` (stereo unspecified), for which the GI50 with A549 was 0.00555 µM (active); with HCC 2998, 0.0435 µM (active); in the assay on DU-145, 0.00258 µM (active); in the assay with K562, < 0.001 µM (active); in the assay with OVCAR-4 it was 2.01 µM (inactive); with NCI/ADR-RES it was 0.0102 µM (active). Further, the GI50 is 0.0017 µM (active) in the assay with 786-0; 0.201 µM (active) in the assay on EKVX; 0.00177 µM (active) with LOX IMVI; < 0.001 µM (active) in the assay with HCT-116; 0.00106 µM (active) in the assay on NCI-H226; < 0.001 µM (active) in the assay with CCRF-CEM. Moreover, the GI50 with PC-3 was 0.026 µM (active); with OVCAR-8 it was 0.0015 µM (active); in the assay with MDA-MB-435, < 0.001 µM (active); in the assay on SK-OV-3, < 0.001 µM (active); in the assay on UACC-257, 0.00223 µM (active); with SNB-19 it was 0.00316 µM (active). Further, the GI50 in the assay with Malme-3M was < 0.001 µM (active).
As for `COc1cc2c3cc1Oc1c(OC)c(OC)cc4c1C(Cc1ccc(O)c(c1)Oc1ccc(cc1)CC3N(C)CC2)N(C)CC4` (stereo unspecified), the GI50 was 26.3 µM (inactive) with A549; 15.8 µM (inactive) in the assay on HCC 2998; 37.8 µM (inactive) in the assay with DU-145; 24.8 µM (inactive) in the assay with SF-539; 7.78 µM (inactive) with K562; 29 µM (inactive) with OVCAR-4. Moreover, the GI50 in the assay with NCI/ADR-RES was 31.5 µM (inactive); in the assay on 786-0, > 100 µM (inactive); in the assay with EKVX, 27.9 µM (inactive); in the assay on LOX IMVI it was 58.7 µM (inactive); with HCT-116 it was 45.3 µM (inactive); in the assay with NCI-H226, 49.9 µM (inactive). For the same compound, the GI50 in the assay on CCRF-CEM is 17.2 µM (inactive); in the assay on PC-3, 31.3 µM (inactive); in the assay with OVCAR-8, 33.6 µM (inactive); in the assay with MDA-MB-435, > 10 µM (inactive); in the assay on SK-OV-3, 29.6 µM (inactive); in the assay on UACC-257, 34.1 µM (inactive). The GI50 is 20.2 µM (inactive) in the assay with SNB-19 and 59.2 µM (inactive) in the assay with Malme-3M.
Turning to `COc1cc(-c2oc3c(OC)c(O)c(OC)c(O)c3c(=O)c2OC)ccc1O`, the GI50 in the assay on A549 was 65.3 µM (inactive); in the assay on HCC 2998, 45.3 µM (inactive); with DU-145 it was 32 µM (inactive); in the assay on SF-539 it was 40.4 µM (inactive); in the assay with K562 it was 58.6 µM (inactive); in the assay with OVCAR-4, 74.1 µM (inactive). For the same compound, the GI50 with NCI/ADR-RES was 50.8 µM (inactive); in the assay with 786-0 it was 38.1 µM (inactive); with EKVX, 78.7 µM (inactive); in the assay on LOX IMVI, 26.9 µM (inactive); with HCT-116, 50.6 µM (inactive); with NCI-H226, 34.9 µM (inactive). For the same compound, the GI50 was 35.2 µM (inactive) with CCRF-CEM; 48.9 µM (inactive) in the assay with PC-3; 68.5 µM (inactive) in the assay with OVCAR-8; 17.8 µM (inactive) in the assay with MDA-MB-435; 17.9 µM (inactive) in the assay with SK-OV-3; 60.5 µM (inactive) in the assay with UACC-257. In addition, the GI50 in the assay on SNB-19 was > 100 µM (inactive); with Malme-3M it was 34.7 µM (inactive).
Take `NS(=O)(=O)OCCCCCCCOS(N)(=O)=O`: the GI50 in the assay on A549 is 109 µM (inactive); with HCC 2998, 300 µM (inactive); in the assay on DU-145, 124 µM (inactive); in the assay with SF-539, 138 µM (inactive); with K562 it was 347 µM (inactive); in the assay on OVCAR-4, 409 µM (inactive). Also, the GI50 in the assay on NCI/ADR-RES was 273 µM (inactive); in the assay with 786-0 it was 144 µM (inactive); in the assay on EKVX, 272 µM (inactive); in the assay with LOX IMVI, 161 µM (inactive); with HCT-116, 309 µM (inactive); in the assay on NCI-H226, 292 µM (inactive). The GI50 with CCRF-CEM is 46.8 µM (inactive); with PC-3, 249 µM (inactive); in the assay on OVCAR-8, 221 µM (inactive); in the assay on MDA-MB-435, 410 µM (inactive); in the assay on SK-OV-3, 471 µM (inactive); in the assay on UACC-257, 451 µM (inactive). Besides, the GI50 in the assay with SNB-19 was 275 µM (inactive); in the assay with Malme-3M, 437 µM (inactive).
`O=C(O)c1c2c(cc3c1CC1(Cc4ccccc4C1)C3)CCC2`: the GI50 in the assay with A549 is 35.6 µM (inactive); in the assay on HCC 2998 it was > 100 µM (inactive); with DU-145, 66.5 µM (inactive); with SF-539, > 100 µM (inactive); in the assay with K562, 59.3 µM (inactive); with OVCAR-4 it was 58.2 µM (inactive). Moreover, the GI50 in the assay with NCI/ADR-RES is 35.4 µM (inactive); in the assay with 786-0 it was 80 µM (inactive); in the assay with EKVX it was 40.6 µM (inactive); with LOX IMVI it was 24.8 µM (inactive); in the assay on HCT-116, > 10 µM (inactive); in the assay with NCI-H226, > 100 µM (inactive). Further, the GI50 with CCRF-CEM was 23.3 µM (inactive); with PC-3, > 100 µM (inactive); with OVCAR-8 it was 63.1 µM (inactive); in the assay with MDA-MB-435, > 100 µM (inactive); in the assay with SK-OV-3 it was > 100 µM (inactive); in the assay on UACC-257 it was > 100 µM (inactive). Moreover, the GI50 in the assay on Malme-3M was 51.3 µM (inactive).
